Several values for one entry are separate records, joined by “and”; a condition that tells them apart may be missing. Identical values can stand only once.
Experiments:
mouse neutrophils = assay: Rapid adhesion of mouse neutrophils to fibrinogen and ICAM-1; assay type: cell-based; details: mean+/−SD
Source text: All data are expressed as the mean+/−SD of bound cells in 0.2 mm^2 from three independent experiments made in duplicate.

human neutrophils = assay: Rapid human neutrophil adhesion to ICAM-1, inhibition by bocMLF and PTx; assay type: cell-based; details: oligomeric Aβ, 2 minutes
Description: It is known that one of the receptors for Aβ is the receptor for fMLP, formylpeptide chemotactic receptor (FPR). To evaluate the contribution of this GPCR receptor on Aβ-dependent neutrophil adhesion, we inhibited its function using boc-MLF, a formyl-peptide chemotactic receptor antagonist. Human neutrophils were incubated for 2 minutes with buffer (control) or with oligomeric Aβ. 0.1 μM fMLP was used as a positive control. Values are expressed as the mean counts of bound cells in 0.2 mm^2 from three independent experiments in duplicate. Error bars represent SD. […] To exclude the possibility that rapid adhesion triggering was a consequence of a generic plasma membrane alteration due to the lipophilic nature of Aβ, we evaluated rapid adhesion in lymphocytes, which are known to lack fMLP receptors.

[1] = test system: Bend.3 endothelial cell line; assay: Adhesion molecule expression on Bend.3 endothelial cells (immunofluorescence); assay type: cell-based, mouse; parameters: key: −: VCAM-1 and selectins were not expressed (indicated by -, Table 2); constitutively expressed at low levels on endothelial cells (indicated by +/−, some vessels were positive for ICAM-1, Table 2); an increase of ICAM-1 expression (indicated by +, Table 2); details: Bend.3 cells, 10 μM Aβ1-42 oligomers, 18 h
Description: We performed in vitro experiments to study the effect of soluble Aβ1-42 oligomers on the endothelial cell line Bend.3, derived from mouse cerebral cortex purchased by ATCC& Cell Biology Collection (CRL-2299TM).
Briefly, Bend.3 were cultured at a concentration of 20×10^3/ml on a glass coverslip in 24-well plates containing DMEM supplemented with 10% Fetal Calf Serum (FCS). Cells were stimulated with 10 μM Aβ 1-42, for 18 h in DMEM with 1% FCS. […] positive control, cells were treated with 25 U/ml of TNFα for 18 h in DMEM with 1% FCS. Bend.3 were rinsed with PBS and fixed with 4% PFA for 10 minutes. Cells were washed with PBS incubated with blocking buffer for 1 h at RT° C. Primary antibodies were diluted in 1% Bovine Serum Albumin (BSA) PBS. Cells were incubated overnight at 4° C. with 50 μg/ml anti-VCAM (hybridoma MK2.7), 10 μg/ml anti-ICAM (hybridoma YN1.7), 0.5 μg/ml anti-CD31 (370700, Invitrogen), 5 μg/ml anti-E-selectin (hybridoma RME-1) and 1.5 μg/ml anti-P-selectin (CD62P, BD Pharmigen). The day after, cells were rinsed 2 times with PBS and then incubated with 7.5 μg/ml biotinylated secondary antibody (rabbit anti-rat, T0226, VectorLab) for 1 h at RT° C. Cells were rinsed 2 times with PBS and incubated with 25 μg/ml Avidin-TexasRed (A2006, Vector Lab) for 1 h at RT° C. in the dark. After rinsing in PBS, cells were incubated with 1 μg/ml Dapi (D9542, Sigma-Aldrich, St. Louis, Mo.), for 5 minutes in the dark. Finally, glass coverslip was transferred on glass slides and mounted with Dako medium (S3023, DAKO NORTH AMERICA, Carpinteria, Calif.). Glass slides were kept at 4° C. in the dark and acquired by LEICA fluorescence microscopy (DM6000B, LEICA, Germany).
We analyzed the expression of VCAM-1, ICAM-1, E- and P-selectin on Bend.3 after Aβ1-42 oligomers stimulation. TNF-α stimulation, which is well known to up-regulate the adhesion molecules expression, was used as positive control. We evaluated a dose-response effect of Aβ1-42 soluble oligomers on Bend.3 cells, ranging from 1 to 10 μM after 6 or 18 hours of treatment. After 18 h of treatment with 10 μM Aβ we observed a significant up-regulation of […] compared to non-stimulated control cells (CTRL) (Table 2). […] ICAM-1 was constitutively expressed at low levels on endothelial cells (indicated by +/−, some vessels were positive for ICAM-1, Table 2), but 18 h treatment with Aβ1-42 led to an increase of ICAM-1 expression (indicated by +, Table 2).

## Abeta 1-42: soluble oligomeric amyloid-beta 1-42 peptide used as stimulus
Mouse neutrophils; 5 μM
  Rapid adhesion to Fibrinogen: 37.13 ± 3.25 bound cells in 0.2 mm^2
  Rapid adhesion to ICAM-1: 149.9 ± 28 bound cells in 0.2 mm^2
Mouse neutrophils; 10 μM
  Rapid adhesion to Fibrinogen: 44.75 ± 3.68 bound cells in 0.2 mm^2
  Rapid adhesion to ICAM-1: 201.9 ± 14.14 bound cells in 0.2 mm^2
Mouse neutrophils; 20 μM
  Rapid adhesion to Fibrinogen: 88.75 ± 7.72 bound cells in 0.2 mm^2
  Rapid adhesion to ICAM-1: 285.3 ± 12.5 bound cells in 0.2 mm^2
Mouse neutrophils; Abeta 1 μM
  Rapid adhesion to Fibrinogen: 8 ± 2.42 bound cells in 0.2 mm^2
  Rapid adhesion to ICAM-1: 27.42 ± 3.59 bound cells in 0.2 mm^2
Human neutrophils
  Neutrophil adhesion to ICAM-1, stimulus alone (Ctrl, no inhibitor): 490.4 ± 38.9 bound cells in 0.2 mm^2 and 475.5 ± 40.0 bound cells in 0.2 mm^2
[1]
  CD31 expression (endothelial cell marker): +
  E-sel expression: +
  ICAM-1 expression: +
  P-sel expression: +
  VCAM-1 expression: +

From patent US20210332139A1, “MODULATION OF LEUKOCYTE ACTIVITY IN TREATMENT OF NEUROINFLAMMATORY DEGENERATIVE DISEASE” (Leuvas Therapeutics, priority 2013, published 2021)
